Results as given in ChEMBL document CHEMBL4800727 (2021).

How the values were obtained:
Conditions in all cases: Compound concentration 10.0 uM
[1] = target: 5-hydroxytryptamine receptor 2A (Homo sapiens) (UniProt P28223)
[2] = target: 5-hydroxytryptamine receptor 2B (Homo sapiens, UniProt P41595)
[3] = target: T1, 5-hydroxytryptamine receptor 2C (Homo sapiens) (UniProt P28335)
T1 sequence (whole entry): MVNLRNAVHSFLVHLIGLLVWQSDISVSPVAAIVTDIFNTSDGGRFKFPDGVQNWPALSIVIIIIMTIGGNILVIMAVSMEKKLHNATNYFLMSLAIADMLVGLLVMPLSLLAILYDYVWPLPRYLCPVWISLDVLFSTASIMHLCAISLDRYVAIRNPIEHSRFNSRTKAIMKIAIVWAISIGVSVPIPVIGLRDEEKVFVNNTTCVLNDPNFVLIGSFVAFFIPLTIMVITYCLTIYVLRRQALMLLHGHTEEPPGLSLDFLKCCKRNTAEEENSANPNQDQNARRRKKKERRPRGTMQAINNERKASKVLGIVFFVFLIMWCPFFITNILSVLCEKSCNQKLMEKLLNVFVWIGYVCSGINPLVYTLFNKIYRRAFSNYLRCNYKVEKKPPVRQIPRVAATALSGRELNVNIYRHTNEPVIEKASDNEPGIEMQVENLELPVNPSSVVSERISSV

[4] = target: T2, 5-hydroxytryptamine receptor 3A (Homo sapiens) (UniProt P46098)
T2 sequence (whole entry): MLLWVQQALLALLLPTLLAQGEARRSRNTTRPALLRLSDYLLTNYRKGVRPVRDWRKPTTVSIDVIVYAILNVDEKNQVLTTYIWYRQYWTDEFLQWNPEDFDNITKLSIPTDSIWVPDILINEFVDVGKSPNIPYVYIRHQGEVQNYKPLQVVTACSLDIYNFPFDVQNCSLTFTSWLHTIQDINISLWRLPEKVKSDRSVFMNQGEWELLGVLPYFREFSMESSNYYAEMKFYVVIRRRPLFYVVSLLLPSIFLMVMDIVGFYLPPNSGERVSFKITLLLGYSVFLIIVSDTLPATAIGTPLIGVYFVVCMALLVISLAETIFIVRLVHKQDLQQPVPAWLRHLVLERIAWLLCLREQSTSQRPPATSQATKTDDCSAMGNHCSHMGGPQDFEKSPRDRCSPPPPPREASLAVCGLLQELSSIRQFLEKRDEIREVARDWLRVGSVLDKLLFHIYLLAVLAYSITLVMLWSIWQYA

[5] = target: 5-hydroxytryptamine receptor 7 (Homo sapiens, UniProt P34969)
[6] = target: D(3) dopamine receptor (Homo sapiens) (UniProt P35462)
[7] = target: D(4) dopamine receptor (Homo sapiens) (UniProt P21917)
[8] = target: Sodium-dependent noradrenaline transporter (Homo sapiens) (UniProt P23975)
[9] = target: Sodium-dependent dopamine transporter (Homo sapiens, UniProt Q01959)
[10] = target: Kappa-type opioid receptor (Homo sapiens) (UniProt P41145)
[11] = target: Histamine H1 receptor (Homo sapiens) (UniProt P35367)
[12] = target: T3, Alpha-2B adrenergic receptor (Homo sapiens) (UniProt P18089)
T3 sequence (whole entry): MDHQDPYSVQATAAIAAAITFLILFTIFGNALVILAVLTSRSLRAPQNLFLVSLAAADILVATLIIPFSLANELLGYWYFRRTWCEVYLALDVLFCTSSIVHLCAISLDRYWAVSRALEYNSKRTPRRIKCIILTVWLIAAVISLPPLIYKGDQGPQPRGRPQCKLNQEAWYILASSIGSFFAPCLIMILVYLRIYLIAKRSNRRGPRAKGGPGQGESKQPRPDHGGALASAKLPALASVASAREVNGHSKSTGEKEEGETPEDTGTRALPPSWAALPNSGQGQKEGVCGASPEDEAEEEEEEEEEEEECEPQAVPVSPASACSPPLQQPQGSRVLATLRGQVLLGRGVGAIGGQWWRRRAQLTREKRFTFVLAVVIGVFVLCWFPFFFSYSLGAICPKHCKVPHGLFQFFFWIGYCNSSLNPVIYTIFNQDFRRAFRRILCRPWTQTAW

[13] = target: Alpha-2C adrenergic receptor (Homo sapiens) (UniProt P18825)
[14] = target: Beta-2 adrenergic receptor (Homo sapiens) (UniProt P07550)
[15] = target: T4, Muscarinic acetylcholine receptor M2 (Homo sapiens) (UniProt P08172)
T4 sequence (whole entry): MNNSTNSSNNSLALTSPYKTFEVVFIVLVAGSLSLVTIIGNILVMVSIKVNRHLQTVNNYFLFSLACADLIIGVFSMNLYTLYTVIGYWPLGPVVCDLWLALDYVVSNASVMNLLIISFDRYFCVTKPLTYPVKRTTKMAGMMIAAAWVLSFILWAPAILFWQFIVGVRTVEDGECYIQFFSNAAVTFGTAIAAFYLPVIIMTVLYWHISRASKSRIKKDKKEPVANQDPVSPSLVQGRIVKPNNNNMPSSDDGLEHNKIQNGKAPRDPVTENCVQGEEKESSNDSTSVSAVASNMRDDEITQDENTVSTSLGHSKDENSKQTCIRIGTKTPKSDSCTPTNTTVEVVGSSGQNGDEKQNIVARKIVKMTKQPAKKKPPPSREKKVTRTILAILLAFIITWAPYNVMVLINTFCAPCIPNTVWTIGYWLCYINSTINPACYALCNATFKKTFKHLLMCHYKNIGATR

[16] = target: GABA-A receptor; anion channel (Rattus norvegicus) (UniProt O09028+P15431+P18506+P18508+P19969+P20236+P23574+P23576+P28471+P28473+P30191+P62813+P63079+P63138+Q91ZM7+Q9ES14)
[17] = target: Alpha-1D adrenergic receptor (Homo sapiens) (UniProt P25100)
[18] = target: Sigma intracellular receptor 2 (Homo sapiens) (UniProt Q5BJF2)
[19] = target: Sigma non-opioid intracellular receptor 1 (Homo sapiens) (UniProt Q99720)

Chain of Histamine H1 receptor (Homo sapiens) (P35367 whole entry): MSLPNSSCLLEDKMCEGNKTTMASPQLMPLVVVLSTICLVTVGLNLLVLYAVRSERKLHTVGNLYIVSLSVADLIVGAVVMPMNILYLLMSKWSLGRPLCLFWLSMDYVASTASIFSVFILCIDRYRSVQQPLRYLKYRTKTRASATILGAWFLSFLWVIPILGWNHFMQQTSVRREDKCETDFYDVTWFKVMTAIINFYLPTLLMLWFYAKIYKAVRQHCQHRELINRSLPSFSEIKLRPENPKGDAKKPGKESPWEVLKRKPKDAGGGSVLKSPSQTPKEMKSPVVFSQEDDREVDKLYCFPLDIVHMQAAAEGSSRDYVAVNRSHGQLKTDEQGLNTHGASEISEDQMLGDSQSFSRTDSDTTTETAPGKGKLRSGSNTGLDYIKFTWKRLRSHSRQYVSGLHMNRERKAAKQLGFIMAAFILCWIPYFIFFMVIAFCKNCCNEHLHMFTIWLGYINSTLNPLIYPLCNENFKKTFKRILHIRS
Chain of Alpha-2C adrenergic receptor (Homo sapiens) (P18825 whole entry): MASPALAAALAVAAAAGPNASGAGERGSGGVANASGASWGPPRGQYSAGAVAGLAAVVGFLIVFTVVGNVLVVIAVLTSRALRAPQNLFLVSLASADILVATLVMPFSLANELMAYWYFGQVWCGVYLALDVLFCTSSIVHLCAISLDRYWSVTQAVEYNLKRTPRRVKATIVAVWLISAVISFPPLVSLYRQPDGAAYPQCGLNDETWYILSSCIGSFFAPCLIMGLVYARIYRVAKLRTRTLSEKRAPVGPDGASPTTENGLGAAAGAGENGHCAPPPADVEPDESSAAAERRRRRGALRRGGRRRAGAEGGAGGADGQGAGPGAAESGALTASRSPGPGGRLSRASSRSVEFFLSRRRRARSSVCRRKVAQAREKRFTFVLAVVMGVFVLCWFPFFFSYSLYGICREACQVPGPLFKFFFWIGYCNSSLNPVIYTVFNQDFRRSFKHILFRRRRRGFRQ
Chain of Kappa-type opioid receptor (Homo sapiens) (P41145 whole entry): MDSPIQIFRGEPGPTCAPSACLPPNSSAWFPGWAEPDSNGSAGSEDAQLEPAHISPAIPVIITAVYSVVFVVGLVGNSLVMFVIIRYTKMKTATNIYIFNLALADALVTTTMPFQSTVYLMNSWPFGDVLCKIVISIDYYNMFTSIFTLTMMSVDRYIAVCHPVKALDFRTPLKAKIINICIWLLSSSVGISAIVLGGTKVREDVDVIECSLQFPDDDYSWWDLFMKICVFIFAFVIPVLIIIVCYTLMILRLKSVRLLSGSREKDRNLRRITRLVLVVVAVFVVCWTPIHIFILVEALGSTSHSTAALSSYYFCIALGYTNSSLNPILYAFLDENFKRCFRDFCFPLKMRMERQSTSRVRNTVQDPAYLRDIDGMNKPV
Chain of D(4) dopamine receptor (Homo sapiens) (P21917 whole entry): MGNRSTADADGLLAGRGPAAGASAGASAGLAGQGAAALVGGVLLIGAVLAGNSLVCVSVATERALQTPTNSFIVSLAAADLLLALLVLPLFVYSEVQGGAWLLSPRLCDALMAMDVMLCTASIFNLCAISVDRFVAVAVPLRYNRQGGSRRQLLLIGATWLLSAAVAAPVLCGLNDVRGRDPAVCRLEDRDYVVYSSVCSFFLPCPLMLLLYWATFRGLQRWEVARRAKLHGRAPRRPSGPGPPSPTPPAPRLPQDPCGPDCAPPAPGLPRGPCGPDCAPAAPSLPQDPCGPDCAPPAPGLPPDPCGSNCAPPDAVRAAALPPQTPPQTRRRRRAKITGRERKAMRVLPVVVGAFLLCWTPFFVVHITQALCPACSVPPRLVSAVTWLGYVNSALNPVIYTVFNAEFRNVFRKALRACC
Chain of Beta-2 adrenergic receptor (Homo sapiens) (P07550 whole entry, looked up): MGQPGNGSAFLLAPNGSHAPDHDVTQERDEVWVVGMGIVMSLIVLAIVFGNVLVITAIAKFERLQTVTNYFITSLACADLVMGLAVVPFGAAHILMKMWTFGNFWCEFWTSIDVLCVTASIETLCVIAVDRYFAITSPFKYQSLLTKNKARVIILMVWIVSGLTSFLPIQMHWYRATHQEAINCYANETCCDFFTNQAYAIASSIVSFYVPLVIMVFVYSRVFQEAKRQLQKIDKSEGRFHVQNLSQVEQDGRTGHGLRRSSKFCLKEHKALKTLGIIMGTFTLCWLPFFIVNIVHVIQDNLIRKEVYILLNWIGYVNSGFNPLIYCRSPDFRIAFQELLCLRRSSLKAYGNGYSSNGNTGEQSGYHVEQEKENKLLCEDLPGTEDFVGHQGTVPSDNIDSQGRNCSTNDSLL
Chain of 5-hydroxytryptamine receptor 7 (P34969 whole entry): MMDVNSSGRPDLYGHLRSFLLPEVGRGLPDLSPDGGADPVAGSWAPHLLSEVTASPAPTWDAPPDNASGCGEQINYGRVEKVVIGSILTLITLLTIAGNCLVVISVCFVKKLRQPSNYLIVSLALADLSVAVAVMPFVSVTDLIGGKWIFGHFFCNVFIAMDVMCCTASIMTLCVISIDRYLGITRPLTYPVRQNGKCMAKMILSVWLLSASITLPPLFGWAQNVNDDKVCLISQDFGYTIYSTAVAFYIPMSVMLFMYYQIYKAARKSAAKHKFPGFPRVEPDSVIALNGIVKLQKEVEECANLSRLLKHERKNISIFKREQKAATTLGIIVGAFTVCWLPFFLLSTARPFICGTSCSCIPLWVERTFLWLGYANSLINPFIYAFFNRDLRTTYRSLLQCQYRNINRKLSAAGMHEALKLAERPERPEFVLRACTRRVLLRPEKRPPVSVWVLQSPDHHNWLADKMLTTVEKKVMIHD
Chain of Alpha-1D adrenergic receptor (Homo sapiens) (P25100 whole entry): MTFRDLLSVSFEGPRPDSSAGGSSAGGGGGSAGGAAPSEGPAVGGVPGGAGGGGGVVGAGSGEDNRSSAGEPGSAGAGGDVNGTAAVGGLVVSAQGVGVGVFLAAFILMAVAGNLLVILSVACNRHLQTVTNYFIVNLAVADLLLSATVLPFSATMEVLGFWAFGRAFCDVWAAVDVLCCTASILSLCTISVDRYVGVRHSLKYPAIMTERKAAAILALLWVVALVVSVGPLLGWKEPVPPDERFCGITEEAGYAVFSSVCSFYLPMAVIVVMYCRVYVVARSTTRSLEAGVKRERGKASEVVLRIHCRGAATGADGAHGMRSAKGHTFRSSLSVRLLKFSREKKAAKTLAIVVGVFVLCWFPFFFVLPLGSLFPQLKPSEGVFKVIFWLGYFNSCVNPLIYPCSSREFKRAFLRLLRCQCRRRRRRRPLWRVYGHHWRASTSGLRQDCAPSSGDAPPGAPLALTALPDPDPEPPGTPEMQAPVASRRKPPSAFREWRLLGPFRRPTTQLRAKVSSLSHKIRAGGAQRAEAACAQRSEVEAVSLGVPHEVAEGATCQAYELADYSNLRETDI
Chain of D(3) dopamine receptor (Homo sapiens) (P35462 whole entry): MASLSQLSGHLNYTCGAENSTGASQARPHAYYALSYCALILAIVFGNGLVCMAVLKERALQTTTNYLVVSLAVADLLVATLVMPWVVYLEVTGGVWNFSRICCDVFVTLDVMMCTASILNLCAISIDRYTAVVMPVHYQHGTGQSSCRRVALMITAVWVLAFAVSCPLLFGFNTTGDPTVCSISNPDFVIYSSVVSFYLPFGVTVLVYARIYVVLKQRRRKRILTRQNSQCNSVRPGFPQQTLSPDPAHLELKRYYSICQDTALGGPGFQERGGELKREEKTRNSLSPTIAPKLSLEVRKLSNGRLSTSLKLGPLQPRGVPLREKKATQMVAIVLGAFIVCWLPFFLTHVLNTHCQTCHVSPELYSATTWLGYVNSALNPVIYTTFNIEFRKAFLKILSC
Chain of Sigma intracellular receptor 2 (Homo sapiens) (Q5BJF2 whole entry): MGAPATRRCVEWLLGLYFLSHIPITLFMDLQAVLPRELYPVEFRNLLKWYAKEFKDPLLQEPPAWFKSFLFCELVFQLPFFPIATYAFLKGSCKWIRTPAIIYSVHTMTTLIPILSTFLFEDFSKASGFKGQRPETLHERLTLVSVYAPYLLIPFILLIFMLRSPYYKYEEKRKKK
Chain of 5-hydroxytryptamine receptor 2B (P41595 whole entry): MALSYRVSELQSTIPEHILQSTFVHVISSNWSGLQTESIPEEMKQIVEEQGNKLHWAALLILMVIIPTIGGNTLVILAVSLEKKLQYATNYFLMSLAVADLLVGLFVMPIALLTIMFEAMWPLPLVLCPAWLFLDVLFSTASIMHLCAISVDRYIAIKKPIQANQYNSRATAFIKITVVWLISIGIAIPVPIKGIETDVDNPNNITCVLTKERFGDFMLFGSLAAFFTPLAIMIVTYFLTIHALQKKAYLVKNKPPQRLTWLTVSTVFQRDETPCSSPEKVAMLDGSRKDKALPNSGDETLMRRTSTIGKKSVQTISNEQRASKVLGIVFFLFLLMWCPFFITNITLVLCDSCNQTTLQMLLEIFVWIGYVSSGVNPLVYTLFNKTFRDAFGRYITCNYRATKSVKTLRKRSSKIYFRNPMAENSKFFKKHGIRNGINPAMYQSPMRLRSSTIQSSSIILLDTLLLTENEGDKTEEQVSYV
Chain of Sodium-dependent noradrenaline transporter (Homo sapiens) (P23975 whole entry): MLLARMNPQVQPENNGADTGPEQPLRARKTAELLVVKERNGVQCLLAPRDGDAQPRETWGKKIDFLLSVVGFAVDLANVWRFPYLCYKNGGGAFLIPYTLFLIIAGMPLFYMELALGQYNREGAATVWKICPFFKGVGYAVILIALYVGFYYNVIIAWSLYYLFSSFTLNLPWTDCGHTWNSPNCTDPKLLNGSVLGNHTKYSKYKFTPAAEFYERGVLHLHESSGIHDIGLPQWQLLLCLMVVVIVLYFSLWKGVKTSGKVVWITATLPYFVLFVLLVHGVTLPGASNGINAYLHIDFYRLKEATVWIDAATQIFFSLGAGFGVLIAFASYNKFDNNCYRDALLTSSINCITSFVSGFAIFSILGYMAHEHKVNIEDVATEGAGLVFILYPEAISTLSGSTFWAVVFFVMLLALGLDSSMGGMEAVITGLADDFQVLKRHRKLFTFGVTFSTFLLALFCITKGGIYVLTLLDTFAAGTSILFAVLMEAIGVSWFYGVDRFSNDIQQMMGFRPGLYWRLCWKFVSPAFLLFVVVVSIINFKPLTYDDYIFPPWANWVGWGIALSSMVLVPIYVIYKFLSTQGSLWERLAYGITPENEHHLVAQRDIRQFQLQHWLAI

Structure (SMILES)	inhibition [1] [%]	inhibition [2] [%]	inhibition [3] [%]	inhibition [4] [%]	inhibition [5] [%]	inhibition [6] [%]	inhibition [7] [%]	inhibition [8] [%]	inhibition [9] [%]	inhibition [10] [%]	inhibition [11] [%]	inhibition [12] [%]	inhibition [13] [%]	inhibition [14] [%]	inhibition [15] [%]	inhibition [16] [%]	inhibition [17] [%]	inhibition [18] [%]	inhibition [19] [%]
COCCc1ccc(-c2c(C)nc3c(N4CCOCC4)ccnn23)cn1 [JNJ-42396302]	45.9	52.2	68.2	4.69	96.1	24.1	-3.39	16	9.55	14.5	24.6	78.2	41.3	-1.12	10.4	34	15.3	3.07	-2.53
c1ccc(C2CCN(c3cnc4c(N5CCOCC5)nccn34)CC2)cc1	13.1	17.7	5.92	9.38	20.2	-6.13	0.44	17.4	85.9	6.44	11.2	31.4	16.5	8.86	9.44	22.2	10.7	31.6	44
